Experiment [1] has as its system S. epidermidis ATCC 12228. The experiment can be described thus: MIC, broth microdilution, standard strain. It is filed as cell-based, Staphylococcus epidermidis. Particulars: Staphylococcus epidermidis, ATCC12228, 19 h, 35 °C. For orientation: Dilution methods test growth across graded concentrations, often in twofold steps.
In experiment [2] the test system is P. aeruginosa ATCC 15442. Nature of the experiment: MIC, broth microdilution, standard strain. Format: cell-based, Pseudomonas aeruginosa. As to conditions: Pseudomonas aeruginosa, ATCC15442, 19 h, 35 °C.
The subject of experiment [3] is S. aureus ATCC 6538. Nature of the experiment: MIC, broth microdilution, standard strain. Format: cell-based, Staphylococcus aureus. As to conditions: Staphylococcus aureus, ATCC6538, 19 h, 35 °C.
The subject of experiment [4] is E. coli 600. Nature of the experiment: MIC, broth microdilution, clinical strain. Format: cell-based, Escherichia coli. Particulars: Escherichia coli, 600, 19 h, 35 °C.
Experiment [5] deals with S. epidermidis ATCC 35984. The experiment can be described thus: MIC, broth microdilution, standard strain. Format: cell-based, Staphylococcus epidermidis. Particulars: Staphylococcus epidermidis, ATCC35984, 19 h, 35 °C.
The test system of experiment [6] is HaCaT (human immortal keratinocyte cell line). Nature of the experiment: MTT cytotoxicity assay. As to conditions: Homo sapiens, HaCaT, 72 h, mean SD, read-out: IC50 HaCaT (normal cells). It is filed as cell-based. The protocol:
(§1) The human cell lines SW480 (primary colon cancer), SW620 (lymph node metastatic colon cancer from the same patient as primary cancer cells), HCT116 (colon carcinoma), HepG2 (liver cancer), and HaCaT (immortalized keratinocytes) were obtained from the American Type Culture Collection (ATCC, Rockville, MD, USA). The SW480, SW620 and HCT116 cells were grown in MEM (ThermoSci, Waltham, MA, USA), HepG2 and HaCaT in DMEM High Glucose (Biowest SAS, Nuaillé, France) supplemented with 10% foetal bovine serum (FBS), HEPES (20 mM), and antibiotics (100 U mL^−1 of Penicillin and 100 μg mL^−1 of Streptomycin). The cells were incubated in a humidified incubator at 37 °C/5% CO2, until 80–90% confluence was reached.
(§2) The cell viability was assessed by using of MTT salt [3-(4,5-dimethylthiazol-2-yl)-2,5-diphenyltetrazolium bromide] converted by mitochondrial dehydrogenase, occurring in living cells. The cells were seeded in 96-well plates at a density of 1 × 10^4 cells per well and allowed to adhere for 24 h at 37 °C in a CO2 humidified incubator. […]. The untreated cells were used as the control.
(§3) After 72 h incubation, the medium was replaced with 200 µL per well of free-serum medium containing 0.5 mg mL^−1 MTT and incubated for 4 h at 37 °C in a CO2 humidified incubator. Subsequently, the medium was removed and dimethyl sulfoxide (DMSO) with isopropanol (1:1) was added to dissolve the formazan crystals. The optical density was measured using UVM 340 reader (ASYS Hitech GmbH, Eugendorf, Austria) at a wavelength of 570 nm. The experiments were repeated three times. The cell viability was calculated as the percent of MTT reduced in treated cells versus control cells (untreated cells). The number of viable cells cultured without tested compounds was assumed as 100%. A decreased relative MTT level indicates decreased cell viability. The IC50 values were estimated using CompuSyn version 1.0.
For orientation: Tetrazolium assays rely on reduction of a dye to a coloured formazan, in cell work by metabolically active cells.

Experiment [7] concerns HCT116 (human colon cancer). Nature of the experiment: MTT cytotoxicity assay. Format: cell-based. As to conditions: Homo sapiens, HCT-116, 72 h, mean SD. How it is done:
as §1, §2, §3

Experiment [8] relates to HepG2 (human liver cancer). Nature of the experiment: MTT cytotoxicity assay. Format: cell-based. As to conditions: Homo sapiens, HepG2, 72 h, mean SD. How it is done:
as §1, §2, §3

Experiment [9] deals with SW480 (human primary colon cancer). Nature of the experiment: MTT cytotoxicity assay. Format: cell-based. Particulars: Homo sapiens, SW480, 72 h, mean SD. How it is done:
as §1, §2, §3

Experiment [10] relates to P. aeruginosa 659. Nature of the experiment: MIC, broth microdilution, clinical strain. Particulars: Pseudomonas aeruginosa, 659, read-out: MIC P. aeruginosa 659, 19 h, 35 °C. It is filed as cell-based, Pseudomonas aeruginosa.
In experiment [11] the test system is S. aureus NCTC 4163. Nature of the experiment: MIC, broth microdilution, standard strain. Format: cell-based, Staphylococcus aureus. Particulars: Staphylococcus aureus, NCTC4163, 19 h, 35 °C.
The test system of experiment [12] is S. aureus T 5591. The experiment can be described thus: MIC, broth microdilution, clinical strain. Particulars: Staphylococcus aureus, T5591, 19 h, 35 °C. It is filed as cell-based, Staphylococcus aureus.
In experiment [13] the test system is S. aureus ATCC 25923. The experiment can be described thus: MIC, broth microdilution, standard strain. It is filed as cell-based, Staphylococcus aureus. Particulars: Staphylococcus aureus, ATCC25923, 19 h, 35 °C.
Experiment [14] has as its system S. epidermidis KR 4243. Nature of the experiment: MIC, broth microdilution, clinical strain. Format: cell-based, Staphylococcus epidermidis. As to conditions: Staphylococcus epidermidis, KR4243, 19 h, 35 °C.
In experiment [15] the test system is E. coli 520. Nature of the experiment: MIC, broth microdilution, clinical strain. Format: cell-based, Escherichia coli. As to conditions: Escherichia coli, 520, 19 h, 35 °C.
Experiment [16] has as its system S. pasteuri KR 4358. Nature of the experiment: MIC, broth microdilution, clinical strain. Particulars: Staphylococcus pasteuri, KR4358, 19 h, 35 °C. It is filed as cell-based, Staphylococcus pasteuri.
Experiment [17] relates to S. aureus T 5595. Nature of the experiment: MIC, broth microdilution, clinical strain. Format: cell-based, Staphylococcus aureus. As to conditions: Staphylococcus aureus, T5595, 19 h, 35 °C.
The test system of experiment [18] is E. coli 510. The experiment can be described thus: MIC, broth microdilution, clinical strain. It is filed as cell-based, Escherichia coli. Particulars: Escherichia coli, 510, 19 h, 35 °C.
For experiment [19], the system named is S. aureus ATCC 29213. Nature of the experiment: MIC, broth microdilution, standard strain. It is filed as cell-based, Staphylococcus aureus. As to conditions: Staphylococcus aureus, ATCC29213, 19 h, 35 °C.
In experiment [20] the test system is E. coli ATCC 25922. The experiment can be described thus: MIC, broth microdilution, standard strain. Particulars: 35 °C; for MIC: Escherichia coli, ATCC25922, 19 h; for MIC E. coli ATCC 25922: 19 h. Format: cell-based, Escherichia coli.
The subject of experiment [21] is SW620 (human metastatic colon cancer). The experiment can be described thus: MTT cytotoxicity assay. As to conditions: Homo sapiens, SW-620, 72 h, mean SD. It is filed as cell-based. How it is done: as §1
The cell viability was assessed by using of MTT salt [3-(4,5-dimethylthiazol-2-yl)-2,5-diphenyltetrazolium bromide] converted by mitochondrial dehydrogenase, occurring in living cells. […] The untreated cells were used as the control.
as §3, with “Subsequently,” for “After 72 h incubation, the medium was replaced with 200 µL per well of free-serum medium containing 0.5 mg mL^−1 MTT and incubated for 4 h at 37 °C in a CO2 humidified incubator. Subsequently,”

Data on three molecules can be found in paper PMC9224473 (International Journal of Molecular Sciences, 2022).

The structures appear in SMILES notation. Values after ≈ are worked out from the molar mass of the structure shown.

As usually defined, the MIC is the smallest concentration in the dilution series that meets the test's criterion for growth inhibition. As a reminder, the IC50 is the concentration needed to halve the response being measured. Take `CC(C)[C@@H]1CC[C@@H](C)C[C@H]1OC(=O)CN1CCN(c2cc3c(cc2F)c(=O)c(C(=O)O)cn3C2CC2)CC1` [Compound 2, 1-cyclopropyl-6-fluoro-7-{4-[2-((1R,2S,5R)-2-isopropyl-5-methylcyclohexyloxy)-2-oxoethyl]piperazin-1-yl}-4-oxo-1,4-dihydroquinoline-3-carboxylic acid]: the MIC in [1] amounted to 16 µg/mL (≈ 30.3 µM); in [2] it was 128 µg/mL (≈ 243 µM); in experiment [3] it was 16 µg/mL (≈ 30.3 µM); in experiment [4], 16 µg/mL (≈ 30.3 µM); in [5], 16 µg/mL (≈ 30.3 µM); in [10] it was 128 µg/mL (≈ 243 µM). For the same molecule, the MIC in experiment [11], in [12], in [13], in experiment [14], in experiment [15] and in experiment [16] was 16 µg/mL (≈ 30.3 µM) each time. For the same molecule, the MIC was 16 µg/mL (≈ 30.3 µM) in experiment [17], above 256 µg/mL in experiment [18], 16 µg/mL (≈ 30.3 µM) in experiment [19] and 8 µg/mL (≈ 15.2 µM) in experiment [20]. The IC50 in [6] came to 25.7 ± 3 µM; in experiment [7], 32.3 ± 1.5 µM; in [8], 16.5 ± 0.4 µM; in experiment [9], 36 ± 2.9 µM; in experiment [21], 26.7 ± 0.2 µM.

Turning to `CC(C)[C@@H]1CC[C@@H](C)C[C@H]1OC(=O)CCCN1CCN(c2cc3c(cc2F)c(=O)c(C(=O)O)cn3C2CC2)CC1` [Compound 4, 1-cyclopropyl-6-fluoro-7-{4-[4-((1R,2S,5R)-2-isopropyl-5-methylcyclohexyloxy)-4-oxobutyl]piperazin-1-yl}-4-oxo-1,4-dihydroquinoline-3-carboxylic acid], the MIC in experiment [1] was found to be 4 µg/mL (≈ 7.2 µM); in experiment [2] it was 64 µg/mL (≈ 115 µM); in [3], 4 µg/mL (≈ 7.2 µM); in [4] it was 4 µg/mL (≈ 7.2 µM); in [5] it was 4 µg/mL (≈ 7.2 µM); in experiment [10], 256 µg/mL (≈ 461 µM). Also, the MIC stood at 4 µg/mL (≈ 7.2 µM) in experiment [11]; 4 µg/mL (≈ 7.2 µM) in experiment [12]; 4 µg/mL (≈ 7.2 µM) in experiment [13]; 4 µg/mL (≈ 7.2 µM) in experiment [14]; 8 µg/mL (≈ 14.4 µM) in experiment [15]; 4 µg/mL (≈ 7.2 µM) in experiment [16]. Besides, the MIC in experiment [17] is 4 µg/mL (≈ 7.2 µM); in experiment [18], 256 µg/mL (≈ 461 µM); in [19], 4 µg/mL (≈ 7.2 µM); in experiment [20], 2 to 4 µg/mL (≈ 3.6 to 7.2 µM). Besides, the IC50 in experiment [6] amounted to 30.5 ± 2.4 µM; in [7] it was 24.2 ± 0.1 µM; in experiment [8] it was 35.1 ± 4.4 µM; in experiment [9], 36.8 ± 2.6 µM; in experiment [21], 54.3 ± 4.1 µM. Further, the “MIC E. coli ATCC 25922” value in experiment [20] is 4 µg/mL (≈ 7.2 µM).

As to `Cc1ccc(C(C)C)c(OC(=O)CCN2CCN(c3cc4c(cc3F)c(=O)c(C(=O)O)cn4C3CC3)CC2)c1` [Compound 11, 1-cyclopropyl-6-fluoro-7-{4-[3-(2-isopropyl-5-methylphenoxy)-3-oxopropyl]piperazin-1-yl}-4-oxo-1,4-dihydroquinoline-3-carboxylic acid], the MIC in experiment [1] came out at 4 µg/mL (≈ 7.47 µM); in experiment [2], 16 µg/mL (≈ 29.9 µM); in [3], 4 µg/mL (≈ 7.47 µM); in [4], 4 µg/mL (≈ 7.47 µM); in experiment [5] it was 4 µg/mL (≈ 7.47 µM); in experiment [10] it was 16 µg/mL (≈ 29.9 µM). In addition, the MIC in [11] amounted to 4 µg/mL (≈ 7.47 µM); in [12], 4 µg/mL (≈ 7.47 µM); in experiment [13] it was 4 µg/mL (≈ 7.47 µM); in [14], 4 µg/mL (≈ 7.47 µM); in experiment [15], 8 µg/mL (≈ 14.9 µM); in experiment [16], 8 µg/mL (≈ 14.9 µM). For the same molecule, the minimal inhibitory concentration (MIC) is 8 µg/mL (≈ 14.9 µM) in experiment [17], 256 µg/mL (≈ 478 µM) in [18], 4 µg/mL (≈ 7.47 µM) in experiment [19] and 2 to 4 µg/mL (≈ 3.73 to 7.47 µM) in [20]. Further, the IC50 is above 100 µM in [6]; 39.1 ± 5.8 µM in [7]; 51.3 ± 4.1 µM in experiment [8]; 33.7 ± 6.6 µM in [9]; 43.5 ± 7.5 µM in [21]. Moreover, the “MIC E. coli ATCC 25922” value in experiment [20] was 4 µg/mL (≈ 7.47 µM).
